Assay results reported in patent publication US9693564B2, “Water based antimicrobial composition using benzalkonium chloride and cocamidopropyl PG-dimonium chloride phosphate” (SAFEHANDS SOLUTIONS, LLC, priority 2011, dated 2017).

Test system: Staphylococcus aureus
Test: Antimicrobial effectiveness testing (log reduction of bacteria, 15 seconds exposure)
Type: cell-based
Details: 15 seconds at 25±1° C., undiluted
Protocol: The tests were performed on broth cultures that were passed through at least three consecutive daily transfers but no more than ten daily transfers. The broth cultures were diluted with the appropriate broth to obtain an inoculum count of 6×10^8 to 1×10^9 CFU/ml (Mac Farland Standard ˜2.0 to 3.0). The test article was used undiluted. The exposure time and temperature was 15 seconds at 25±1° C., respectively. All tests involving the test article were conducted in triplicate. A 4.95 gram sample of the test article was placed in a sterile, screw-top 50 ml polyethylene tube at 25±1° C. The test article was inoculated with 0.05 ml of the test organism at the appropriate concentration. The tube contents were neutralized by the addition of 45 ml of Neutralizer (Tryptic or Trypticase Soy Broth (TSB) with 10% TWEEN 80, 3% Lecithin, 0.5% Sodium thiosulfate and 0.1% Histidine, pH 7.2±0.1) followed by vortexing. One ml of the neutralized sample (10^−1 dilution) was serially diluted in 10-fold steps to 10^−6 for the test article and to 10^−7 for the numbers control using tubes containing 9 ml of AOAC Neutralizer blanks. An inoculum count was determined by 10-fold serial dilutions to 10^−8 using tubes containing 9 ml of AOAC phosphate buffered dilution water. The dilutions were plated in duplicate on Letheen Agar, and plates were incubated in an inverted position for the appropriate time and at a temperature appropriate for the test organism. The test organism was a single species of Staphylococcus aureus.
Antimicrobial effectiveness was determined by calculating the log reduction of bacteria in the test sample. For comparison, the log reduction for a 0.02% CHX-gluconate solution is 0.5, the log reduction for a 0.13% BAC solution is 0.5, and the log reduction for a 1% cocamidopropyl PG-dimonium chloride phosphate solution is 2. When added together, the total log reduction for the three ingredients tested individually is 3.

`CCCCCCCCCCCC(=O)NCCC[N+](C)(C)CC(O)COP(=O)([O-])OCC(O)C[N+](C)(C)CCCNC(=O)CCCCCCCCCCC.[Cl-].[Cl-].[Na+]` (stereo not drawn) [cocamidopropyl PG-dimonium chloride phosphate] gave a log reduction (1% solution) of 2.

With `N=C(NCCCCCCNC(=N)NC(=N)Nc1ccc(Cl)cc1)NC(=N)Nc1ccc(Cl)cc1.O=C(O)[C@H](O)[C@@H](O)[C@H](O)[C@H](O)CO.O=C(O)[C@H](O)[C@@H](O)[C@H](O)[C@H](O)CO` [CHX-gluconate, chlorhexidine gluconate] the log reduction (0.02% solution) was 0.5.

Work on benzalkonium chloride [BAC] yielded a log reduction (0.13% solution) of 0.5.
